Laboratory results as given in patent US8202865B2, “Oxadiazole derivatives” (Merck Serono SA, priority 2007, dated 2012).
pEC50, pKi: −log10 of the molar value. Structures can show the parent of a compound that is named as a salt.

Tests used:
S1P1 [1] = target: T1, S1P1 (Homo sapiens, UniProt P21453); assay: Receptor binding assay, [33P]sphingosine 1-phosphate, membranes, WGA SPA beads; conditions: membranes from CHO cells expressing S1P1; 25 pM [33P]S1P; 60 min RT
T1 construct: expressed in transfected cells; host or cells: CHO cells (membranes)
T1 sequence (P21453 whole entry, species assumed): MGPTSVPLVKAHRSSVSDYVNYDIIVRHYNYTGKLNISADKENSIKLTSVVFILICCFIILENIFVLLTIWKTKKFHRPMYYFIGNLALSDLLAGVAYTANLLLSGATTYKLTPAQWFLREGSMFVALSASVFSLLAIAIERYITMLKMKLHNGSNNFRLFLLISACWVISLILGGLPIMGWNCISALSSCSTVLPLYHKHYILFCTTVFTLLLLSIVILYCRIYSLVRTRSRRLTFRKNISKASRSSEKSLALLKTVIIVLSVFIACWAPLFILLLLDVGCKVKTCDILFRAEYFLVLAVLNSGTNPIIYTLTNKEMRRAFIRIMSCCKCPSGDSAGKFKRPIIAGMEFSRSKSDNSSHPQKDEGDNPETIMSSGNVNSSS
Description: (§1) Receptor binding assay: Membranes were prepared from CHO cells expressing S1P1 or S1P3 for use in ligand and […] binding studies. Cells were suspended in 50 mM TRIS, pH 7.4, 2 mM EDTA, 250 mM Sucrose (buffer A) and 1× Complete protease inhibitor cocktail (Roche), and disrupted at 4° C. by N2 decompression using a cell disruption bomb (Parr Instrument). Following centrifugation at 1000 RPM for 10 min at 4° C., the supernatant was suspended in buffer A and centrifuged again at 19000 RPM for 60 min at 4° C. The pellet was then suspended in 10 mM HEPES, pH 7.4, 1 mM EDTA, 250 mM Sucrose (Buffer B), and 1× Complete EDTA-free protease inhibitor cocktail and homogenized using a potter. Membranes were flash frozen in liquid N2 and stored at −80° C. [33P]sphingosine 1-phosphate (3000 Ci/mmol; American Radiolabeled Chemicals, Inc.) was added to test compounds in DMSO. Membranes and WGA SPA beads (GE Healthcare) were added to give a final volume of 100 μl in 96-well plates with assay concentrations of 25 pM or 10 pM [33P]sphingosine 1-phosphate (respectively for S1P1 or S1P3), 50 mM HEPES, pH 7.5, 5 mM MgCl2, 100 mM NaCl, 0.4% fatty acid-free BSA, 1-5 μg/well of proteins and 100 μg/well of WGA SPA beads. Binding was performed for 60 min at RT on a shaker and bound radioactivity was measured on a PerkinElmer 1450 MicroBeta counter. Specific binding was calculated by subtracting remaining radioactivity in the presence of 1000-fold excess of unlabeled S1P. Binding data were analyzed using the GraphPad Prism program.

S1P1 [2] = target: T1, S1P1; assay: 35S-GTPγS binding, S1P1 membranes; format: biochemical; conditions: membranes from CHO cells expressing S1P1; 60 min 30° C.
Outline: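 CHO-cell membranes expressing S1P1 or S1P3 (1-10 μg) incubated with compounds in 20 mM HEPES pH 7.4, 10 mM MgCl2, 140 mM NaCl, saponin, 0.2% BSA, 1.7 μM GDP and [35S]-GTPγS (20 μl of 1.5 nM added), 60 min at 30° C. Bound radioactivity expressed as % of S1P activation.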

S1P3 = target: T2, S1P3 (Homo sapiens, UniProt Q99500); assay: 35S-GTPγS binding, S1P3 membranes; format: biochemical; conditions: membranes from CHO cells expressing S1P3; 60 min 30° C.
T2 construct: expressed in transfected cells; host or cells: CHO cells (membranes)
T2 sequence (Q99500 whole entry, species assumed): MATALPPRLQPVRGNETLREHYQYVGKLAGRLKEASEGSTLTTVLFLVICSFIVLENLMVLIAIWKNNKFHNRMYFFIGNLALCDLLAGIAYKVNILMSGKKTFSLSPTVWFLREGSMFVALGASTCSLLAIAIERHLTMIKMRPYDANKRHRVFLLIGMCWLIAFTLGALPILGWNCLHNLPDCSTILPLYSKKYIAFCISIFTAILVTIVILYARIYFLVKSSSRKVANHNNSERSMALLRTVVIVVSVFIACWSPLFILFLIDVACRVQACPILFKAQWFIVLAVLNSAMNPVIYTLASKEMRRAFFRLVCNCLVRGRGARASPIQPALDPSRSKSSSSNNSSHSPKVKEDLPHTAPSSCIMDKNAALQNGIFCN
Description: as §1
Measurements of ^35S-GTPγS Binding: Membranes (1 to 10 μg protein) prepared as described above, were incubated in 96-well Scintiplates (PerkinElmer) with test compounds diluted in DMSO, in 180 μl of 20 mM HEPES, pH 7.4, 10 mM MgCl2, 2 μg/well Saponin, 0.2% fatty acid free BSA (Assay buffer), 140 mM NaCl and 1.7 μM GDP. The assay was initiated with the addition of 20 μl of 1.5 nM [35S]-GTPγS (1100 Ci/mmol; GE Healthcare) in assay buffer. After 60 min incubation at 30° C. on a shaker, plates were centrifuged for 10 min at 2000 RPM. Supernatant was discarded and membrane bound radioactivity was measured on a PerkinElmer 1450 MicroBeta counter. Triplicate samples were averaged and expressed as % response relative to S1P activation in absence of compound (n=2).

| Compound | pKi (S1P1 [1]) | pEC50 (S1P1 [2]) | pEC50 (S1P3) |
| --- | --- | --- | --- |
| Cc1ccccc1-c1ccc(-c2nc(-c3ccc(OCC(=O)O)c(F)c3)no2)cc1C [Example 48, {4-[5-(2,2′-dimethylbiphenyl-4-yl)-1,2,4-oxadiazol-3-yl]-2-fluorophenoxy}acetic acid] | 7.40 | 6.89 | 4.77 |
| Cc1ccccc1-c1ccc(-c2nc(-c3ccc(NCC(=O)O)c(F)c3)no2)cc1C [Example 56, N-{4-[5-(2,2′-dimethylbiphenyl-4-yl)-1,2,4-oxadiazol-3-yl]-2-fluorophenyl}glycine] | 8.00 | 7.15 | 4.84 |
| Cc1ccccc1-c1ccc(-c2nc(-c3ccc(C(=O)O)c(F)c3)no2)cc1COC(C)C [Example 59, 2-fluoro-4-{5-[2-(isopropoxymethyl)-2′-methylbiphenyl-4-yl]-1,2,4-oxadiazol-3-yl}benzoic acid] | 6.74 | 6.54 | 6.12 |
| Cc1ccccc1-c1ccc(-c2nc(-c3ccc(C(=O)O)c(Cl)c3)no2)cc1C [Example 68, 2-chloro-4-[5-(2,2′-dimethylbiphenyl-4-yl)-1,2,4-oxadiazol-3-yl]benzoic acid] | 7.19 | 6.88 | < 4.52 |
| COCc1cc(-c2nc(-c3ccc(C(=O)O)c(Cl)c3)no2)ccc1-c1ccccc1C [Example 69, 2-chloro-4-{5-[2-(methoxymethyl)-2′-methylbiphenyl-4-yl]-1,2,4-oxadiazol-3-yl}benzoic acid] | 7.59 | 7.47 | 5.58 |

The remaining lines, values ahead:

| pKi (S1P1 [1]) | pEC50 (S1P1 [2]) | pEC50 (S1P3) | Compound |
| --- | --- | --- | --- |
| 7.15 | 6.37 | < 4.52 | CC1CCCCN1c1ccc(-c2nc(-c3ccc(C(=O)O)c(F)c3)no2)cc1C#N (stereo not drawn) [Example 29, 4-{5-[3-cyano-4-(2-methylpiperidin-1-yl)phenyl]-1,2,4-oxadiazol-3-yl}-2-fluorobenzoic acid] |
| 7.40 | 7.30 | 5.23 | CC1CCCCN1c1ccc(-c2nc(-c3ccc(C(=O)O)c(F)c3)no2)cc1NS(C)(=O)=O (stereo not drawn) [Example 30, 2-fluoro-4-(5-{4-(2-methylpiperidin-1-yl)-3-[(methylsulfonyl)amino]phenyl}-1,2,4-oxadiazol-3-yl)benzoic acid] |
| 8.40 | 7.40 | 6.00 | CC1CCCCN1c1ccc(-c2nc(-c3ccc(OCC(=O)O)c(F)c3)no2)cc1C(F)(F)F (stereo not drawn) [Example 47, (2-fluoro-4-{5-[4-(2-methylpiperidin-1-yl)-3-(trifluoromethyl)phenyl]-1,2,4-oxadiazol-3-yl}phenoxy)acetic acid] |
| 7.62 | 7.04 | 6.16 | Cc1ccccc1-c1ccc(-c2nc(-c3ccc(C(=O)O)c(F)c3)no2)cc1CN(C)C [Example 62, 4-(5-{2-[(dimethylamino)methyl]-2′-methylbiphenyl-4-yl}-1,2,4-oxadiazol-3-yl)-2-fluorobenzoic acid, Hydrochloride salt] |
| 7.52 | 7.22 | 6.21 | CCOCc1cc(-c2nc(-c3ccc(C(=O)O)c(F)c3)no2)ccc1-c1ccccc1C [Example 63, 4-{5-[2-(ethoxymethyl)-2′-methylbiphenyl-4-yl]-1,2,4-oxadiazol-3-yl}-2-fluorobenzoic acid] |
| 7.17 | 7.14 | 5.76 | CCS(=O)(=O)Nc1cc(-c2nc(-c3ccc(C(=O)O)c(F)c3)no2)ccc1N1CCCCC1C (stereo not drawn) [Example 67, 4-{5-[3-[(ethylsulfonyl)amino]-4-(2-methylpiperidin-1-yl)phenyl]-1,2,4-oxadiazol-3-yl}-2-fluorobenzoic acid] |
| 7.16 | 7.24 | 5.85 | CC1CCCCN1c1ccc(-c2nc(-c3ccc(C(=O)O)c(Cl)c3)no2)cc1NS(C)(=O)=O (stereo not drawn) [Example 70, 2-chloro-4-(5-{4-(2-methylpiperidin-1-yl)-3-[(methylsulfonyl)amino]phenyl}-1,2,4-oxadiazol-3-yl)benzoic acid] |
